Measured values: patent publication US7615651B2, “Diaryl, dipyridinyl and aryl-pyridinyl derivatives and uses thereof” (Pfizer Inc., priority 2006, dated 2009)
Like-named read-outs stand apart in the source and are kept apart here.

What was measured:
Type in all cases: biochemical
opioid receptor mu = target: T1, opioid receptor mu (Homo sapiens, UniProt P35372); assay: GTPγ[35S] binding assay, antagonism of endorphin
T1 construct: expressed in transfected cells
Procedure: (§1) Membranes were prepared from cells as described (Bass et al, 1996). GTPγ[5S] binding assays were performed in a 96 well FlashPlate™ format in duplicate using […] GTPγ[^35S] and 5 μg membrane per well in assay buffer composed of 50 mM Tris HCl, pH 7.4, 5 mM MgCl2, 1 mM EDTA, 100 mM NaCl, 30 μM GDP, 0.1% bovine serum albumin and the following protease inhibitors: 100 μg/ml bacitracin, 100 μg/ml benzamidine, 5 μg/ml aprotinin, 5 μg/ml leupeptin. The assay mix was then incubated at 30° C. with increasing concentrations of antagonist (10^−10 M to 10^−5 M) for 10 minutes and challenged with the agonists BW-373U86 (1 nM), dynorphin-A (10 nM), […] (1 μM) for opioid receptors delta, kappa, and mu, respectively. The assays were performed at 30° C. for one hour. The FlashPlates were then centrifuged at 2000×g for 10 minutes. Stimulation of GTPγ[^35S] binding was then quantified using a Wallac Microbeta and Ki calculations were done using Prism™ by Graphpad.

opioid receptor kappa = target: T2, opioid receptor kappa (Homo sapiens, UniProt P41145); assay: GTPγ[35S] binding assay, antagonism of dynorphin-A
T2 construct: expressed in transfected cells
Procedure: as §1

opioid receptor delta = target: T3, opioid receptor delta (Homo sapiens, UniProt P41143); assay: GTPγ[35S] binding assay, antagonism of BW-373U86; details: read-out: Delta functional (GTPγ[35S] binding Ki)
T3 construct: expressed in transfected cells
Procedure: as §1

[1] = average Ki, antagonism of endorphin (1 μM) stimulated GTPγ[35S] binding, mu opioid receptor membranes, read-out: Mu functional (GTPγ[35S] binding Ki)
[2] = average Ki, antagonism of dynorphin-A (10 nM) stimulated GTPγ[35S] binding, kappa opioid receptor membranes, read-out: Kappa functional (GTPγ[35S] binding Ki)
[3] = average Ki, antagonism of BW-373U86 (1 nM) stimulated GTPγ[35S] binding, delta opioid receptor membranes
[4] = read-out: Mu functional (GTPγ[35S] binding Ki)
[5] = read-out: Kappa functional (GTPγ[35S] binding Ki)
[6] = read-out: Mu functional Ki (GTPγ[35S] binding)
[7] = read-out: Kappa functional Ki (GTPγ[35S] binding)
[8] = average Ki, antagonism of endorphin (1 μM) at mu opioid receptor membranes, read-out: Mu functional Ki (GTPγ[35S] binding)
[9] = average Ki, antagonism of dynorphin-A (10 nM) at kappa opioid receptor membranes, read-out: Kappa functional Ki (GTPγ[35S] binding)
[10] = average Ki, antagonism of endorphin (1 μM) at mu opioid receptor, read-out: Mu functional Ki (GTPγ[35S] binding)
[11] = average Ki, antagonism of dynorphin-A (10 nM) at kappa opioid receptor, read-out: Kappa functional Ki (GTPγ[35S] binding)

T3 sequence (P41143 whole entry): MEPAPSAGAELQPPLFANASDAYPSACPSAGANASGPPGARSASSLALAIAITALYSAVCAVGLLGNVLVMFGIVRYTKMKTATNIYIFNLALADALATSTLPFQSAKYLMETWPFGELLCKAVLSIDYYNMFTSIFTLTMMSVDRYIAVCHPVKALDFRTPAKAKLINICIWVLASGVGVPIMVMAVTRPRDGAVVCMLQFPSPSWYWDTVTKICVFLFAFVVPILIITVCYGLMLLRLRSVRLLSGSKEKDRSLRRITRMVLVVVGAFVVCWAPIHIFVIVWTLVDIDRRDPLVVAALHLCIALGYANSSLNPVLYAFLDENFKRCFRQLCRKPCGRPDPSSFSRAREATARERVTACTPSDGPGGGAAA
T1 sequence (P35372 whole entry): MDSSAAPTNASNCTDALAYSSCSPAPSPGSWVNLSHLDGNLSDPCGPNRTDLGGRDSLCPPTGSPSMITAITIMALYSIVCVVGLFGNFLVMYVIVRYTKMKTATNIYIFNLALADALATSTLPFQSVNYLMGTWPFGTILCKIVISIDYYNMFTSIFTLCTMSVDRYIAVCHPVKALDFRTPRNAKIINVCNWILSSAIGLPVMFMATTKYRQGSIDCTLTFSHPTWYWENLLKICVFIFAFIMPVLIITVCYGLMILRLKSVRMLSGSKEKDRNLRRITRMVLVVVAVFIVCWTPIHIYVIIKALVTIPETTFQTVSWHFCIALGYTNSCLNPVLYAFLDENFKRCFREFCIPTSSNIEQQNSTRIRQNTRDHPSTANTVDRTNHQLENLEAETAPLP
T2 sequence (P41145 whole entry): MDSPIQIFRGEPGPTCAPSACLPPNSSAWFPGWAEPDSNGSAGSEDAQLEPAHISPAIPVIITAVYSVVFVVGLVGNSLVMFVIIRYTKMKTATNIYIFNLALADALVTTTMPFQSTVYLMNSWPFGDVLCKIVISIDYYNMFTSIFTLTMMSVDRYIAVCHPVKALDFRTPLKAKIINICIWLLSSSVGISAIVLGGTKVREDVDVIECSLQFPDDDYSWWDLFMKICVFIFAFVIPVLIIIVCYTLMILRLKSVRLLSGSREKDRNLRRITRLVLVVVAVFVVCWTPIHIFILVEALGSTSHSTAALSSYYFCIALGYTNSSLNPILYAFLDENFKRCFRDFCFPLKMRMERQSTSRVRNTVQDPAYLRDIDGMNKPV

Row | Compound | Ki (opioid receptor mu; [1]) [nM] | Ki (opioid receptor kappa; [2]) [nM] | Ki (opioid receptor delta; [3]) [nM] | Ki (opioid receptor mu; [4]) [nM] | Ki (opioid receptor kappa; [5]) [nM] | Ki (opioid receptor delta) [nM] | also measured
1 | Cc1cc(CNCCC(C)C)ccc1-c1cccc(C(N)=O)c1 [1A-01] | 1.49 | 11.5 |  |  |  |  | 
2 | Cc1cc(CNCCC(C)C)cc(C)c1-c1cccc(C(N)=O)c1 [1A-02] | 1.25 | 6.72 | 2.59 |  |  |  | 
3 | CC(C)CCNCc1cc(Cl)c(-c2cccc(C(N)=O)c2)c(Cl)c1 [1A-03] | 1.2 | 3.76 | 4.87 |  |  |  | 
4 | COc1cc(-c2cccc(C(N)=O)c2)ccc1CNCCC(C)C [1A-05] | 14 | 16.6 | 10.7 |  |  |  | 
5 | CC(C)CCNCc1cc(F)c(-c2cc(C(N)=O)ccc2F)cc1F [1A-09] | 64.8 | 51.1 | 16.7 |  |  |  | 
6 | NC(=O)c1cccc(-c2cc(F)c(CNC3Cc4ccccc4C3)c(F)c2)c1 [1A-10] |  |  |  | 0.966 | 14.4 | 5.5 | 
7 | NC(=O)c1ccc(F)c(-c2cc(F)c(CNC3Cc4ccccc4C3)c(F)c2)c1 [1A-11] |  |  |  | 0.843 | 12.4 | 6.62 | 
8 | CC(C)CCNCc1ccc(-c2cc(C(N)=O)ccc2F)cc1F [1A-12] | 41.1 | 34.9 | 17.2 |  |  |  | 
9 | CC(C)CCNCc1ccc(-c2cccc(C(N)=O)c2)cc1Cl [1A-13] | 25 | 23.4 | 33.6 |  |  |  | 
10 | Cc1cc(CNCCC(C)C)ccc1-c1ccc(C(N)=O)cc1 [1B-01] | 17.8 | 24.8 | 13.6 |  |  |  | 
11 | CC(C)CCNCc1c(F)cc(-c2ccc(C(N)=O)cc2)cc1F [1B-05] | 107 | 162 | 3000 |  |  |  | 
12 | Cc1cc(C(N)=O)ccc1-c1cc(F)c(CNC2Cc3ccccc3C2)c(F)c1 [1B-07] |  |  |  | 0.0494 | 0.241 | 0.0993 | 
13 | Cc1cc(C(N)=O)ccc1-c1ccc(CNC2Cc3ccccc3C2)c(F)c1 [1B-10] |  |  |  | 0.0717 | 0.256 | 0.0326 | 
14 | Cc1cc(C(N)=O)ccc1-c1ccc(CNC2Cc3ccccc3C2)cn1 [1D-03] |  |  |  | 0.541 | 2.93 | 1.24 | 
15 | Cc1cc(C(N)=O)ccc1-c1ccc(CNC2Cc3ccccc3C2)nc1 [1D-04] |  |  |  | 0.715 | 1.88 | 0.868 | 
16 | NC(=O)c1ccc(-c2ccc(CNC3Cc4ccccc4C3)cn2)c(Cl)c1 [1D-06] |  |  |  | 1.1 | 4.13 | 3.45 | 
17 | Cc1cc(CNCCC(C)C)ccc1-c1ncc(C(N)=O)cc1C [1D-07] | 1.43 | 8.99 | 9.3 |  |  |  | 
18 | CC(C)CCNCc1ccc(-c2cccc(C(N)=O)c2)cc1 [4A-01] | 32.8 | 26.9 | 15.7 |  |  |  | 
19 | CC(C)CCNCc1ccc(-c2cccc(C(N)=O)c2)c(Cl)c1 [4A-05] | 0.95 | 9.84 |  |  |  |  | 
20 | NC(=O)c1cccc(-c2ccc(CNCC3CCCOC3)cc2Cl)c1 (stereo not drawn) [4A-06] |  |  |  | 12.5 | 14.7 | 23.6 | 
21 | NC(=O)c1cccc(-c2ccc(CNCCC3CCOCC3)cc2Cl)c1 [4A-08] |  |  |  | 3.44 | 12.9 | 2.79 | 

Row | Compound | Ki (opioid receptor mu; [1]) [nM] | Ki (opioid receptor kappa; [2]) [nM] | Ki (opioid receptor delta; [3]) [nM] | Ki (opioid receptor mu; [4]) [nM] | Ki (opioid receptor kappa; [5]) [nM] | Ki (opioid receptor delta) [nM] | also measured
22 | CC1(C)OCC(CNCc2ccc(-c3cccc(C(N)=O)c3)c(Cl)c2)O1 (stereo not drawn) [4A-10] | 8.49 | 31.3 | 353 |  |  |  | 
23 | NC(=O)c1cccc(-c2ccc(CNC3CCc4ccccc43)cc2Cl)c1 (stereo not drawn) [4A-11] |  |  |  | 6.27 | 7.69 | 21.3 | 
24 | NC(=O)c1cccc(-c2ccc(CNCC3CCCCO3)cc2Cl)c1 (stereo not drawn) [4A-12] |  |  |  | 15 | 18.2 | 22.7 | 
25 | NC(=O)c1cccc(-c2ccc(CNCCC3CCCCO3)cc2Cl)c1 (stereo not drawn) [4A-13] |  |  |  | 1.16 | 11 | 3.27 | 
26 | CC(C)CCNCc1ccc(-c2ccc(C(N)=O)cc2C(F)(F)F)cc1 [4B-02] |  |  |  | 57.2 | 29.7 | 15.4 | 
27 | Cc1cc(C(N)=O)ccc1-c1ccc(CNCCC2CCOCC2)cc1 [4B-05] |  |  |  | 4.07 | 3.39 | 0.893 | 
28 | Cc1cc(C(N)=O)ccc1-c1ccc(CNCCc2ccccc2)cc1 [4B-09] |  |  |  | 2.73 | 6.19 | 1.82 | 
29 | Cc1cc(C(N)=O)ccc1-c1ccc(CNCc2cccc(Cl)c2)cc1 [4B-10] |  |  |  | 0.94 | 1.58 | 0.602 | 
30 | Cc1cc(C(N)=O)ccc1-c1ccc(CNCCC2CC2)cc1 [4B-11] |  |  |  | 8.38 | 5.7 | 7.05 | 
31 | CC(C)CCNCc1ccc(-c2c(F)cc(C(N)=O)cc2F)cc1 [4B-12] |  |  |  | 48.4 | 26.8 | 16.9 | 
32 | Cc1cc(C(N)=O)ccc1-c1ccc(CN2Cc3ccccc3C2)cc1 [4B-13] |  |  |  | 207 | 33 | 159 | 
33 | Cc1cc(C(N)=O)cc(C)c1-c1ccc(CNCCC(C)C)cc1 [4B-14] |  |  |  | 86.5 | 29.6 | 6.27 | 
34 | CC(C)CCNCc1ccc(-c2ccc(C(N)=O)c(F)c2)cc1 [4B-15] |  |  |  | 295 | 278 | 355 | 
35 | COc1cc(C(N)=O)ccc1-c1ccc(CNCCC(C)C)cc1 [4B-46] |  |  |  |  |  |  | Ki (opioid receptor mu; [6]): 121 nM; Ki (opioid receptor kappa; [7]): 14.7 nM
36 | CC(C)CCNCc1ccc(-c2cccc(-c3ncn[nH]3)c2)c(Cl)c1 [7A-04] |  |  |  |  |  |  | Ki (opioid receptor mu; [8]): 0.162 nM; Ki (opioid receptor kappa; [9]): 0.794 nM
37 | Cc1cc(CNCCC(C)C)ccc1-c1cccc(-c2ncn[nH]2)c1 [7A-05] |  |  |  |  |  |  | Ki (opioid receptor mu; [8]): 0.505 nM; Ki (opioid receptor kappa; [9]): 2.12 nM
38 | CC(C)CCNCc1cc(F)c(-c2cccc(-c3ncn[nH]3)c2)c(F)c1 [7A-06] |  |  |  |  |  |  | Ki (opioid receptor mu; [8]): 2.06 nM; Ki (opioid receptor kappa; [9]): 4.61 nM
39 | CC(C)CCNCc1ccc(-c2cccc(NS(C)(=O)=O)c2)cc1 [8A-01] |  |  |  |  |  |  | Ki (opioid receptor mu; [10]): 14.6 nM; Ki (opioid receptor kappa; [11]): 45.9 nM
40 | Cc1cc(NS(C)(=O)=O)ccc1-c1ccc(CNCCC(C)C)cc1 [8B-01] |  |  |  |  |  |  | Ki (opioid receptor mu; [10]): 715 nM; Ki (opioid receptor kappa; [11]): 1450 nM
41 | CC(C)CC[NH2+]Cc1ccc(-c2cccc(C(N)=O)c2)c(F)c1 [E5-01, (3′-Carbamoyl-2-fluoro-biphenyl-4-ylmethyl)-(3-methyl-butyl)-ammonium chloride] |  |  |  |  |  |  | Ki (opioid receptor mu; [6]): 14 nM; Ki (opioid receptor kappa; [7]): 23 nM

Now from value to compound, other results behind:

Row | Ki (opioid receptor mu; [1]) [nM] | Ki (opioid receptor kappa; [2]) [nM] | Ki (opioid receptor delta; [3]) [nM] | Ki (opioid receptor mu; [4]) [nM] | Ki (opioid receptor kappa; [5]) [nM] | Ki (opioid receptor delta) [nM] | Compound | also measured
42 | 4.64 | 28.8 | 13.8 |  |  |  | CC(C)CCNCc1ccc(-c2cccc(C(N)=O)c2)c(C#N)c1 [1A-04] | 
43 | 52.3 | 101 | 0.0351 |  |  |  | CC(C)CCNCc1ccc(-c2cccc(C(N)=O)c2)cc1O [1A-06] | 
44 | 70.9 | 87.3 | 3160 |  |  |  | CC(C)CCNCc1cc(F)c(-c2cccc(C(N)=O)c2)cc1F [1A-08] | 
45 |  |  |  | 2.66 | 20.1 | 5.28 | Cc1cc(C(N)=O)ccc1-c1c(F)cc(CNC2Cc3ccccc3C2)cc1F [1B-04] | 
46 | 3.24 | 1.89 | 1.97 |  |  |  | Cc1cc(C(N)=O)ccc1-c1ccc(CNCCC(C)C)c(F)c1 [1B-08] | 
47 | 70.5 | 17.9 | 11 |  |  |  | COCCNCc1c(F)cc(-c2ccc(C(N)=O)cc2C)cc1F [1B-09] | 
48 | 154 | 114 | 22 |  |  |  | CC(C)CCNCc1ccc(-c2cccc(C(N)=O)c2)cn1 [1C-01] | 
49 | 20.5 | 17.1 | 11.7 |  |  |  | Cc1cc(C(N)=O)ccc1-c1ccc(CNCCC(C)C)nc1 [1D-01] | 
50 | 43.1 | 14.7 | 4.33 |  |  |  | Cc1cc(C(N)=O)ccc1-c1ccc(CNCCC(C)C)cn1 [1D-02] | 
51 |  |  |  | 1.85 | 4.96 | 4.85 | NC(=O)c1ccc(-c2ccc(CNC3Cc4ccccc4C3)nc2)c(Cl)c1 [1D-05] | 
52 | 44800 | 724 | 1.55 |  |  |  | CC(C)CCNCc1ccc(-c2ccc(F)c(C(N)=O)c2)cc1 [4A-02] | 
53 |  |  |  | 25.2 | 60.2 | 51.9 | NC(=O)c1cc(-c2ccc(CNC3Cc4ccccc4C3)cc2)ccc1F [4A-03] | 
54 | 92.1 | 60.1 | 21.4 |  |  |  | CC(C)CCNCc1ccc(-c2cc(F)cc(C(N)=O)c2)cc1 [4A-04] | 
55 |  |  |  | 9.03 | 14.7 | 24.3 | NC(=O)c1cccc(-c2ccc(CNC[C@@H]3CCCO3)cc2Cl)c1 [4A-07] | 
56 |  |  |  | 175 | 88.6 | 14 | CC(C)CCNCc1ccc(-c2ccc(C(N)=O)cc2)cc1 [4B-01] | 
57 |  |  |  | 3.13 | 1.84 | 4 | Cc1cc(C(N)=O)ccc1-c1ccc(CNCc2ccccc2)cc1 [4B-03] | 
58 |  |  |  | 10.3 | 8.53 | 6.42 | Cc1cc(C(N)=O)ccc1-c1ccc(CNCCOC(C)C)cc1 [4B-06] | 
